{"source": "paper PMC12005767", "about": "(Advanced Science, 2025)", "key": {"[1]": {"system": "acetylation of histone H3, histone H4, and α-tubulin", "experiment": "Acetylation of histone H3, histone H4 and α-tubulin in HEK293T cells (immunoblot)", "format": "cell-based", "conditions": "HEK293T cells, 0.25, 0.5 and 1 × 10^−6 M, 24 h", "method": "(§1) Western blot was carried out as described.^[ [49] ^] In brief, samples were lysed with a lysis buffer. The same quantity of total proteins (40–60 µg) from each sample was separated on SDS‐PAGE followed by transfer onto a nitrocellulose filter membrane and incubation with the indicated antibodies. After incubation with secondary antibodies, the protein bands were visualized using a chemiluminescence imaging system. All samples in the same group were processed simultaneously."}, "HDAC11": {"target": "T1, HDAC11 (Homo sapiens, UniProt Q96DB2)", "T1 construct": "The HDAC11 enzyme was a full‐length human recombinant HDAC enzyme sourced from BPS Bioscience; purchased BPS Bioscience", "T1 sequence (Q96DB2 1-347)": "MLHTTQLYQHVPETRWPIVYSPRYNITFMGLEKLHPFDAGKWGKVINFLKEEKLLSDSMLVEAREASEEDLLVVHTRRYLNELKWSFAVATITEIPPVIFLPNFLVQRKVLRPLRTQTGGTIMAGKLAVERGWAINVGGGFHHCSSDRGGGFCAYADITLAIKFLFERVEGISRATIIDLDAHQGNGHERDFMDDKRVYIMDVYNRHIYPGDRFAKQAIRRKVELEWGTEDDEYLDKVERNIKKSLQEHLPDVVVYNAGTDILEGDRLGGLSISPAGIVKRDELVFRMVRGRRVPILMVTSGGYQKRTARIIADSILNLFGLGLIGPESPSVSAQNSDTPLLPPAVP", "experiment": "HDAC11 inhibition fluorescence assay (ETDKmyr substrate)", "format": "biochemical", "method": "The HDAC11 enzyme was a full‐length human recombinant HDAC enzyme sourced from BPS Bioscience. In detail, a total of 20 µL of recombinant HDAC11 enzyme solution (working concentration = 1 × 10^−9 M) was combined with varying concentrations of the test compound (20 µL) in a 96‐well black plate. The mixture was then incubated at a temperature of 30 °C for a duration of 1 h. Subsequently, 10 µL of the specific fluorogenic substrate (ETDKacyl‐Kmyr) was added. Following 2 h incubation at 30 °C, the catalytic reaction was ceased by adding 10 µL of a developer solution consisting of 2 mg mL^−1 trypsin and 5 × 10^−6 M trichostatin A (TSA). After a standing period of 6 h, the fluorescence intensity was assessed using a microplate reader at excitation and emission wavelengths of 360 and 460 nm, respectively. The inhibition ratios were calculated based on the fluorescence intensity readings of the test wells compared to the control wells. GraphPad Prism 8.0 software was employed to generate IC 50 curves and determine the corresponding IC 50 values utilizing the “log(inhibitor) versus normalized response‐variable slope” function."}, "HDAC9": {"target": "T2, HDAC9 (Homo sapiens, UniProt Q9UKV0)", "T2 construct": "purchased BPS Bioscience", "T2 sequence (Q9UKV0 whole entry)": "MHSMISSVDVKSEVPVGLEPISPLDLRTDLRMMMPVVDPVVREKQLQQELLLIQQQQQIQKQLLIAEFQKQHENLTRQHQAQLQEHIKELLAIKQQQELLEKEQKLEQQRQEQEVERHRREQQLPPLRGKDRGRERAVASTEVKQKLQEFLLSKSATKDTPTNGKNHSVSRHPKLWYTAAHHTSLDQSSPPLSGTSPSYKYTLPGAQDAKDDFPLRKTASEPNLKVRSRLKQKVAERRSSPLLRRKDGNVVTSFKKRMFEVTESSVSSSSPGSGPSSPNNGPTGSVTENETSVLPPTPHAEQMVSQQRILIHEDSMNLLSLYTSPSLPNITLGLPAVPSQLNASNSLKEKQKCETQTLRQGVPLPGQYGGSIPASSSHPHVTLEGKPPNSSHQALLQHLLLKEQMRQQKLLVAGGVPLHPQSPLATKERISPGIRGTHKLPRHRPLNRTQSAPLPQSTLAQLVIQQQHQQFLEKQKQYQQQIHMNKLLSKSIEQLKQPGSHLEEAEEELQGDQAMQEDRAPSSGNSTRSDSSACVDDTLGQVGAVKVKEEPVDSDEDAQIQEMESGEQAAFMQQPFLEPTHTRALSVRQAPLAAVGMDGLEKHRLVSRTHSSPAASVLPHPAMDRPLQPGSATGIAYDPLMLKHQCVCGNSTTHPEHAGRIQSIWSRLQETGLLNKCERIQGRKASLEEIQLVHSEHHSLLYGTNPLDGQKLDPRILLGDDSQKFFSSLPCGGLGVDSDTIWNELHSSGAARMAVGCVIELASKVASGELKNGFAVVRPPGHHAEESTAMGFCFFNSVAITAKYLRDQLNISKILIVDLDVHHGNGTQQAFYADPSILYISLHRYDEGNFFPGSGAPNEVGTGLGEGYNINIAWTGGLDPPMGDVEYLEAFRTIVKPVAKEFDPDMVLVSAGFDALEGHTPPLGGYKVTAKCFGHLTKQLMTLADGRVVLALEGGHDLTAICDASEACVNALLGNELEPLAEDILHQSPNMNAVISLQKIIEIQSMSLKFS", "experiment": "In vitro HDACs inhibition fluorescence assay, HDAC9", "format": "biochemical", "conditions": "mean ± SEM", "method": "In Vitro HDACs Inhibition Fluorescence Assay: For the inhibitory activity against HDAC1‐10, enzymes were also procured from BPS Bioscience. The in vitro […] inhibition assays were conducted following the established method described previously.^[ [45] ^] The working concentrations of HDAC1‐10 were 4 × 10^−9 M. The fluorogenic substrate of HDAC1, 2, 3, and 6 was Boc‐Lys (acetyl)‐AMC, and the substrate of HDAC4, 5, 7, 8, 9, and 10 was Boc‐Lys (trifluoroacetyl) AMC. The developer solution consists of 30 mg mL^−1 trypsin and 5 × 10^−6 M TSA. A standing period of 30 min was sufficient before assessing the fluorescence intensity."}, "[2]": {"system": "SREBP1c, FASN, SCD1, CPT1A, PGC1α, PPARα expression in AML12 cells", "experiment": "Protein and mRNA expression of DNL and fatty acid oxidation genes in FFA-treated AML12 cells", "format": "cell-based", "method": "as §1\n(§2) Cells and liver tissues were extracted for total RNA. A reverse transcription kit was used to synthesize cDNA. qRT‐PCR was performed with the primers listed in Table S1 (Supporting Information) using the SYBR green PCR master mix. The coding sequence of the target gene was found in NCBI, and Primer3 (v.0.4.0) was used to design amplification primers. The results were normalized by β‐actin in the corresponding sample."}, "AML12 cells [3]": {"system": "AML12 cells", "experiment": "FFA-induced lipid accumulation in AML12 cells (Oil Red O)", "format": "cell-based", "conditions": "24 h"}, "HepG2 cells": {"system": "HepG2 cells", "experiment": "FFA-induced lipid accumulation in HepG2 cells (Oil Red O)", "format": "cell-based, human", "conditions": "24 h", "method": "For the lipid accumulation experiment, HepG2 cells were incubated for 24 h in DMEM containing 0.5 × 10^−3 M of a mixture of free fatty acids (FFA; oleic acid: palmitic acid = 2:1) and 1% FFA‐free bovine serum albumin to induce intracellular lipid accumulation, together with B6 treatment.\nCells were fixed with 4% paraformaldehyde, followed by sequential staining with Oil Red O and hematoxylin."}, "[4]": {"system": "MASLD mice (60 kcal% fat diet)", "experiment": "High fat diet-induced MASLD model in mice", "format": "in vivo, C57BL/6J mice", "method": "For pharmacology experiments, mice were divided into five groups (n = 8 per group): control group (C), B6 10 mg kg^−1 group [B6 (10)], high fat diet group (H), HFD + 5 mg kg^−1 B6 group [HB6 (5)], and HFD + 10 mg kg^−1 B6 group [HB6 (10). The 60 kcal% fat diet (MD12033) used for establishing the MASLD model was purchased from Medicience (Yangzhou, China). The C and B6 (10) groups were fed a chow diet for 12 weeks, followed by gavage administration of vehicle and 10 mg kg^−1 B6 for the subsequent four weeks, respectively. The H, HB6 (5) and HB6 (10) groups were fed a 60 kcal% fat diet for 12 weeks, followed by gavage administration of vehicle, 5 mg kg^−1 B6 and 10 mg kg^−1 B6 for the subsequent four weeks, respectively.\nTG, FFA, and TC kits were purchased from Solarbio (Beijing, China). The liver tissues from mice were homogenized and processed according to the instructions. […]\nALT, AST, ALP, TG, NEFA, CHO, LDL‐C, and HDL‐C were assessed using a Hitachi 7020 automatic analyzer (Hitachi, Tokyo, Japan). […]\nFood intake, locomotor VO2, VCO2, and heat production were measured by the TSE system, and RER were calculated using the manufacturer's system software.\nas §1, §2"}, "AML12 cells [5]": {"system": "AML12 cells", "experiment": "Mitochondrial activity (Mito-Tracker, Seahorse OCR) in FFA-treated AML12 cells", "format": "cell-based"}}, "note": "pIC50: −log10 of the molar value.", "data": [{"smiles": "CCCCCOCCCCCNNC(=O)c1ccc(CNC(=O)c2ccccc2)cc1", "note": "[B6]", "values": [{"measurement": "acetylation levels of histones H3 and H4 or tubulin", "setting": "[1]", "value": "no effect"}, {"measurement": "pIC50", "setting": "HDAC11", "value": 7.29}, {"measurement": "pIC50", "setting": "HDAC9", "value": "< 5.00"}, {"measurement": "FFA-suppressed protein and mRNA expression of CPT1A, PGC1α and PPARα", "setting": "[2]", "value": "partially restored"}, {"measurement": "FFA-upregulated protein and mRNA expression of SREBP1c, FASN and SCD1", "setting": "[2]; 0.5 × 10^−6 M, 24 h", "value": "reversed"}, {"measurement": "concentration of maximal effect on lipid accumulation", "setting": "AML12 cells [3]", "value": 500, "unit": "nM"}, {"measurement": "FFA-induced lipid accumulation", "setting": "AML12 cells [3]; various concentrations", "value": "significantly mitigated"}, {"measurement": "FFA-induced lipid accumulation", "setting": "HepG2 cells", "value": "Comparable reduction in lipid accumulation"}, {"measurement": "body weight, chow diet (C group vs B6 (10) group)", "setting": "[4]; 10 mg kg^−1 p.o., chow diet", "value": "no significant differences in body weight"}, {"measurement": "body weight of high fat diet mice", "setting": "[4]; 5 or 10 mg kg^−1 p.o., final 4 weeks, dose-dependent", "value": "reduction in body weight"}, {"measurement": "blood lipids NEFA, CHO, LDL-C", "setting": "[4]; HFD mice", "value": "reduce the elevated levels of blood lipids"}, {"measurement": "glucose tolerance test and insulin tolerance test", "setting": "[4]; HFD mice", "value": "improved glucose tolerance and insulin resistance"}, {"measurement": "phosphorylation of AMPKα at Thr172 in mouse liver", "setting": "[4]; HFD mice", "value": "restores the phosphorylation level"}, {"measurement": "serum ALT, AST and ALP (liver damage)", "setting": "[4]; HFD mice", "value": "alleviate liver damage"}, {"measurement": "serum HDL-C", "setting": "[4]; HFD mice", "value": "no significant effect"}, {"measurement": "liver size and weight, body fat mass", "setting": "[4]; HFD mice, 5 or 10 mg kg^−1 p.o.", "value": "effectively controlled"}, {"measurement": "hepatic lipid content (TG, FFA, TC)", "setting": "[4]; HFD mice, 5 or 10 mg kg^−1 p.o., dose-dependent", "value": "reduction in hepatic lipid content"}, {"measurement": "O2 consumption (VO2), CO2 production (VCO2) and heat", "setting": "[4]; HFD mice, compared to H group", "value": "increase"}, {"measurement": "liver protein and mRNA levels of CPT1A, PGC1α and PPARα", "setting": "[4]; HFD mice, compared to H group", "value": "restored"}, {"measurement": "respiratory exchange ratio (RER)", "setting": "[4]; HFD mice, metabolic cages", "value": "slight increase in RER value"}, {"measurement": "liver protein and mRNA expression of SREBP1c, FASN and SCD1", "setting": "[4]; HFD mice, dose-dependent", "value": "downregulation"}, {"measurement": "food intake of mice", "setting": "[4]; mouse, in vivo", "value": "no effect on food intake"}, {"measurement": "FFA-inhibited mitochondrial activity (Mito-Tracker staining)", "setting": "AML12 cells [5]", "value": "ameliorated"}, {"measurement": "mitochondrial stress test (OCR, basal and maximal respiration)", "setting": "AML12 cells [5]; FFA", "value": "partially restored mitochondrial activity"}]}]}
